Values of other authors, collected in the PKSmart pharmacokinetics tables (Seal et al. 2025).

How the values were obtained:
[1] = Lombardo, Berellini, Obach 2018, Drug Metab Dispos 46:1466, doi 10.1124/dmd.118.082966; conditions: human; for MRT / Vd / half-life / clearance: in vivo, iv; for fraction unbound: plasma
[2] = Lombardo et al. 2013, J Clin Pharmacol 53:178, doi 10.1177/0091270012440282; conditions: for Vd / clearance: in vivo, iv; for fraction unbound: plasma

Row | Structure (SMILES) | MRT [1] [h] | Vd [1] [L/kg] | half-life [1] [h] | Vd ([2]; dog) [L/kg] | fraction unbound ([2]; dog) | Vd ([2]; monkey) [L/kg] | fraction unbound ([2]; monkey) | Vd ([2]; rat) [L/kg] | fraction unbound ([2]; rat) | clearance [1] [mL/min/kg] | clearance ([2]; rat) [mL/min/kg] | clearance ([2]; dog) [mL/min/kg] | fraction unbound [1] | clearance ([2]; monkey) [mL/min/kg]
1 | COC(=O)C1=C(C)NC(C)=C(C(=O)OCCN(C)Cc2ccccc2)C1c1cccc([N+](=O)[O-])c1 (centres undefined) | 1.5 | 1 | 4.1 | 2.39 | 0.062 | 1.23 | 0.06 | 1.9 | 0.084 | – | – | – | – | –
2 | CCN(CC)C(=O)/C(C#N)=C/c1cc(O)c(O)c([N+](=O)[O-])c1 | 0.38 | 0.27 | – | – | – | – | – | 0.24 | – | 12 | 10.8 | – | – | –
3 | Cc1ccc(-c2nc3ccc(C)cn3c2CC(=O)N(C)C)cc1 | 2.1 | 0.54 | 1.7 | – | – | – | – | 1.05 | 0.17 | 4.3 | 48.7 | – | – | –
4 | CCS(=O)(=O)CCn1c([N+](=O)[O-])cnc1C | 16 | 0.59 | 13 | 0.89 | – | – | – | – | – | 0.6 | – | 1.67 | – | –
5 | O=C(O)c1cc(-c2ccc(F)cc2F)ccc1O | 14 | 0.097 | 10 | – | – | – | – | 0.15 | – | 0.1 | 1.52 | – | – | –
6 | COc1cc(NS(C)(=O)=O)ccc1Nc1c2ccccc2nc2ccccc12 | 6.2 | 1.6 | 4.7 | 2.8 | 0.081 | – | – | 4.5 | 0.1 | 4.3 | 83 | 16 | 0.029 | –
7 | Nc1ccn(C[C@@H](CO)OCP(=O)(O)O)c(=O)n1 | 3.3 | 0.49 | 2.6 | – | – | 0.8 | – | 2 | 1 | 2.5 | 0.7 | – | – | 3.5
8 | COc1cc2nc(N3CCN(C(=O)C4COc5ccccc5O4)CC3)nc(N)c2cc1OC (centres undefined) | 14 | 1.3 | 10 | 5 | 0.0653 | – | – | 3 | 0.03 | – | – | 13 | – | –
9 | CON=C(C(=O)NC1C(=O)N2C(C(=O)O)=CCS[C@H]12)c1csc(N)n1 (some centres undefined) | 1.6 | 0.2 | 1.5 | 0.27 | 0.83 | 0.29 | 0.662 | 0.54 | 0.7 | 2.1 | 19.3 | 3.25 | 0.72 | 5.93
10 | CCN1CCN(C(=O)NC(C(=O)NC2C(=O)N3C(C(=O)O)C(C)(C)S[C@H]23)c2ccccc2)C(=O)C1=O (some centres undefined) | 1.1 | 0.27 | 0.96 | 0.24 | 0.84 | 0.26 | 0.95 | 0.39 | 0.61 | – | 17.7 | 6.6 | – | 7.2
11 | COc1nc(C)nc(Cl)c1NC1=NCCN1 | 2.7 | 1.8 | 2.2 | – | – | – | – | 3.2 | – | 11 | 50.1 | – | – | –
12 | COc1ccc2c3c1O[C@H]1C[C@@H](O)C=C[C@@]31CCN(C)C2 | 6.8 | 2.3 | 5.3 | 2.78 | 0.981 | – | – | 5.2 | 0.75 | 5.6 | 31.7 | 12.3 | – | –
13 | CNS(=O)(=O)Cc1ccc2[nH]cc(CCN(C)C)c2c1 | 1.5 | 1.7 | 1.7 | 1.74 | 0.86 | – | – | 1.15 | 0.85 | 19 | 28 | 13.9 | – | –
14 | CCCC[C@@H]1CC(=O)[C@]2(O)O[C@@H]3[C@@H](NC)[C@@H](O)[C@@H](NC)[C@H](O)[C@H]3O[C@@H]2O1 | 6.9 | 0.7 | 11 | 49.8 | 0.533 | – | – | 4.46 | 0.62 | 1.7 | 4.28 | 2.69 | 0.65 | –
